How the values were obtained:
Format in all cases: physicochemical
[1] = Solubility of compound in solvents or raw material monomers, visual; settings: summary of Table 3
Method: The solubility in the following solvents or media A to G as raw material monomers of a resin was evaluated. The evaluation method is as follows: 0.1 ml of a solvent was added to […] of each compound to dissolve the compound, and the solubility was visually determined based on the following evaluation ranks. In this test, evaluation rank “B” or higher is an acceptable level.

[2] = Absorption characteristics of compound (molar absorption coefficient, half-width) in chloroform; settings: for Half-Width: at maximal absorption wavelength
Method: Using a spectrophotometer UV-3600 (trade name) manufactured by Shimadzu Corporation, a molar absorption coefficient ϵ (1/mol·cm) and a half-width at a maximal absorption wavelength were measured and evaluated based on the following evaluation ranks. The half-width means a width (distance) between two wavelengths showing half the intensity of the maximal value at the maximum absorption wavelength. In the table, the evaluation of the molar absorption coefficient ϵ is described in the column of ϵ. As a measurement solvent, chloroform was used.
In this test, a molar absorption coefficient at evaluation rank “B” or higher (S to B) is regarded as acceptable, and due to the fact that the half-width is preferably narrow from the viewpoint of an improvement of color reproducibility, a half-width at evaluation rank “A” or higher (S or A) is regarded as acceptable.

[3] = Relative fluorescence intensity of fluorescent latex dispersion; settings: for fluorescence intensity of fluorescent latex as the compound amount is increased (in words): compared with comparative compound (1), summary of Table 1; for Relative Fluorescence Intensity: relative to 6 μmol/g of the same compound, at emission maximum wavelength, dispersion diluted 200 times
Method: As latex particles, particles having an average particle diameter of 150 nm, which were prepared by polymerizing a mixture of styrene and an acrylic acid in a mass ratio of 9:1 in a state of being dispersed in water, were used. The average particle diameter was measured using a dynamic light scattering method using Zetasizer Nano ZS (trade name, manufactured by Malvern Panalytical Ltd.) based on the above-described measurement conditions. 5 mL of THF was added dropwise to 25 mL of the latex dispersion with a solid content of 2% (solid content mass: 500 mg) prepared as above, and the mixture was stirred for 10 minutes. 2.5 mL of a THF solution of a test compound (any one of the compound (1-1), the compound (1-2), the compound (2-1), or the comparative compound (1)) was added dropwise thereto for 15 minutes. In Table 1, μmol/g in the column of compound amount indicates the number of moles of the compound used with respect to 1 g of the solid content of the latex. Completion of the dropwise addition of the test compound was followed by stirring for 30 minutes and concentration under reduced pressure to remove THF. After that, the particles were precipitated by centrifugation, followed by addition of ultrapure water and redispersion to manufacture fluorescent latex dispersions Nos. 101 to 104, 201, 202, 301 to 303, and c11 to c14 with a concentration of solid contents of 2 mass %.
The relative fluorescence intensity of the fluorescent latex dispersion with a concentration of solid contents of 2 mass % manufactured as above at an emission maximum wavelength was evaluated. The evaluation was performed using a latex dispersion diluted 200 times with ultrapure water with the use of a fluorescence spectrophotometer RF-5300PC (trade name) manufactured by Shimadzu Corporation for measurement of the emission maximum wavelength and the fluorescence intensity at the emission maximum wavelength.
In the respective test compounds, based on the fluorescence intensity at the emission maximum wavelength with a compound amount of 6 μmol/g, fluorescence intensities at the emission maximum wavelength with other compound amounts were evaluated as the relative fluorescence intensity.

[4] = compound amount 48 μmol/g latex solids
[5] = compound amount 100 μmol/g latex solids
[6] = compound amount 24 μmol/g latex solids

solubility in the solvent or raw material monomer (in words) [1] | ε (molar absorption coefficient at maximal absorption wavelength) [2] | Half-Width [2] | fluorescence intensity of fluorescent latex as the compound amount is increased (in words) [3] | Relative Fluorescence Intensity [3, 4] | Relative Fluorescence Intensity [3, 5] | Relative Fluorescence Intensity [3, 6] | SMILES
excellent solubility | S (equal to or greater than 130,000) | S (equal to or less than 30 nm) | higher fluorescence intensity | 7 times as large as No. 301 | 12 times as large as No. 301 | – | CC1=C(C(=O)OC2C(C(C)(C)C)CC(C)CC2C(C)(C)C)C(N)=[N+]2C1=C(C)c1c(C)c(C(=O)OC3C(C(C)(C)C)CC(C)CC3C(C)(C)C)c(N)n1[B-]2(F)C(F)(F)F (centres unmarked) [Compound (2-1)]
excellent solubility | S (equal to or greater than 130,000) | S (equal to or less than 30 nm) | higher fluorescence intensity | 7 times as large as No. 101 | 12 times as large as No. 101 | 4 times as large as No. 101 | CC1=C(C(=O)OC2C(C(C)(C)C)CC(C)CC2C(C)(C)C)C(N)=[N+]2C1=C(C)c1c(C)c(C(=O)OC3C(C(C)(C)C)CC(C)CC3C(C)(C)C)c(N)n1[B-]2(F)F (centres unmarked) [Compound (1-1)]
poor solubility | D (less than 100,000) | S (equal to or less than 30 nm) | – | 5 times as large as No. c11 | 6 times as large as No. c11 | 3 times as large as No. c11 | CCOC(=O)C1=C(C)C2=C(c3cc(-c4ccc(C(C)(C)C)cc4)cc(-c4ccc(C(C)(C)C)cc4)c3)c3c(C)c(C(=O)OCC)c(C)n3[B-](F)(F)[N+]2=C1C [Comparative Compound (1), reference compound]

SMILES | solubility in the solvent or raw material monomer (in words) [1] | ε (molar absorption coefficient at maximal absorption wavelength) [2] | Half-Width [2] | fluorescence intensity of fluorescent latex as the compound amount is increased (in words) [3] | Relative Fluorescence Intensity [3, 4] | Relative Fluorescence Intensity [3, 5] | Relative Fluorescence Intensity [3, 6]
CC1CC(C(C)(C)C)C(OC(=O)C2=C(c3ccccc3)C3=Cc4c(-c5ccccc5)c(C(=O)OC5C(C(C)(C)C)CC(C)CC5C(C)(C)C)c(N)n4[B-](F)(F)[N+]3=C2N)C(C(C)(C)C)C1 (centres unmarked) [Compound (1-2)] | – | S (equal to or greater than 130,000) | A (equal to or greater than 31 nm and equal to or less than 35 nm) | higher fluorescence intensity | – | 10 times as large as No. 201 | –

Reference: US20220332733A1, “MATERIAL FOR WAVELENGTH CONVERSION, WAVELENGTH CONVERSION MEMBER, LIGHT EMITTING DEVICE, AND COMPOUND USED FOR SAME” (FUJIFILM Corporation, priority 2021, published 2022)
